Data on 47 molecules can be found in the Deep4Chem optical property database.

This data set in a line: solvent given as SMILES.

As to `c1ccc(-c2nnc(-c3ccc(N4c5ccccc5Oc5ccccc54)cc3)o2)cc1`, the emission maximum came to 495 nm (in Cc1ccccc1) and 498 nm (in c1ccc(-n2c(-c3c(-n4c5ccccc5c5ccccc54)cccc3-n3c4ccccc4c4ccccc43)nc3ccccc32)cc1).

With `CC1=NN(c2cccc3ccccc23)[B-](F)(F)[n+]2ccccc21`, under “in ClCCl”, the emission maximum stood at 538 nm.

Take `CCN(CC)c1ccc(-c2nc3c(nc2-c2ccc([B-](F)(c4c(C)cc(C)cc4C)c4c(C)cc(C)cc4C)cc2)c2ccccc2n3C)cc1`: the emission maximum (in C1CCOC1) is 497.22 nm.

Molecule `C[C@]12SC(=O)C=C1c1nc(-c3ccc(O)cc3)[nH]c1C1=CC(=O)S[C@@]12C` showed an emission maximum (in CC#N) of 536 nm.

Turning to `CCC1=C(C)C2=Cc3c(I)c(I)c(I)n3[B-](F)(F)[N+]2=C1C`, the emission maximum turned out to be 551.5 nm (in C1CCCCC1); 553 nm (in CC(C)=O); 557 nm (in CCO); 553.5 nm (in CCOC(C)=O); 554 nm (in CO); 550.5 nm (in OCC(F)(F)F).

Regarding `Fc1ccc2c(c1)sc1nc(-c3ccccc3)sc12`, the emission maximum (in CS(C)=O) was 407 nm.

Regarding `Cc1ccc(S(=O)(=O)Nc2c(/C=C/c3ccccc3)sc(-c3ccc(N(C)C)cc3)c2-c2ccsc2)cc1`, for the setting “in CC#N”, the emission maximum amounted to 627 nm.

Molecule `CC(C)(C)c1ccc(C2=Cc3cc4c(cc3P2(=O)c2ccccc2)C=C(c2ccc(C(C)(C)C)cc2)P4(=O)c2ccccc2)cc1` (configuration not stated) registered an emission maximum (in C1CCOC1) of 495 nm.

With `CC(=O)O[B-]1(OC(C)=O)OC(/C=C/C=C/c2ccccc2)=CC(/C=C/C=C/c2ccccc2)=[O+]1`, the emission maximum runs as follows: (in C1CCOC1) 531 nm; (in CC#N) 550 nm; (in CC(C)=O) 544 nm; (in CS(C)=O) 558 nm; (in Cc1ccccc1) 523 nm; (in ClC(Cl)Cl) 543 nm. Besides, the emission maximum (in ClCCl) was found to be 545 nm.

The molecule `CCCCCCOC(=O)/C=C/C1=CC2=C(c3c(C)cc(C)cc3C)c3cc(/C=C/C(=O)OCCCCCC)cn3[B-](F)(F)[N+]2=C1` yielded an emission maximum (in ClCCl) of 606 nm.

Where the note is “in O”, `C=CC1CN2CCC1CC2[C@H](O)c1ccnc2ccc(OC)cc12` (some centres not stated) came in with an emission maximum of 451 nm.

Turning to `COc1ccc2c(c1)C(=O)c1ccccc1-2`, the emission maximum is given as 518 nm (in C1CCCCC1) and 568 nm (in CC#N).

In the case of `O[Si](c1c2ccccc2cc2ccccc12)(c1c2ccccc2cc2ccccc12)c1c2ccccc2cc2ccccc12`, the emission maximum (in ClC(Cl)Cl) is on record as 434 nm.

In the case of `c1cc2ccc3ccc(-n4c5ccccc5c5ccccc54)c4ccc(c1)c2c34`, the emission maximum is 407 nm (in CCCCCC), 398 nm (in CCO), 398 nm (in CCOC(C)=O) and 399 nm (in ClCCl).

With `N#Cc1c(N2CCCCC2)cc(-c2ccccc2)c2c1Cc1ccccc1-2`, the emission maximum (in C1CCOC1) was 449 nm.

In the case of `c1ccc(-c2csc(-c3ccncc3)n2)cc1`, the emission maximum is on record as 498 nm (in CC#N), 407 nm (in CCO), 402 nm (in CN(C)C=O) and 472 nm (in ClCCl).

`CCN(CC)c1ccc2cc(-c3ccc(-c4ccc(-c5cc6ccccc6oc5=O)cc4)cc3)c(=O)oc2c1` had an emission maximum (in ClCCl) of 478 nm.

In the case of `CCOC(CN1C(=O)C2=C(c3ccsc3)N(CC(OCC)OCC)C(=O)C2=C1c1ccsc1)OCC`, the emission maximum (in ClC(Cl)Cl) is on record as 524 nm.

Regarding `F[B-]1(F)n2ccnc2-c2cccc[n+]21`, the emission maximum stood at 338 nm (in C1CCCCC1); 353 nm (in C1CCOC1); 352 nm (in C1COCCO1); 359 nm (in CC#N); 337 nm (in CCCCCC); 362 nm (in CO). Moreover, under “in ClC(Cl)Cl”, the emission maximum turned out to be 356 nm.

With `CCCCN(CCCC)c1ccc(/C=C/c2ccc3c(c2)CCc2cc(/C=C/c4ccc(N(CCCC)CCCC)cc4)ccc2-3)cc1`, the emission maximum runs as follows: (in CS(C)=O) 536.5 nm; (in Cc1ccccc1) 456.4 nm.

`COc1ccc(N(c2ccccc2)c2ccc(OC)cc2)cc1` returned an emission maximum (in Cc1ccccc1) of 387 nm.

Take `FC(F)(F)c1ccc(/C=C/c2nc(/C=C/c3ccc(N(c4ccccc4)c4ccccc4)cc3)cc(/C=C/c3ccc(N(c4ccccc4)c4ccccc4)cc3)n2)cc1`: the emission maximum amounted to 526 nm (in C1CCOC1); 600 nm (in CC#N); 567 nm (in CC(C)=O); 467 nm (in CCCCCCC); 599 nm (in CS(C)=O); 486 nm (in Cc1ccccc1). Also, the emission maximum (in ClCCl) stood at 554 nm.

Where the note is “in Cc1ccccc1”, `CCOC(=O)c1cc2ccc3ccccc3c2c(C#N)c1N` displayed an emission maximum of 461 nm.

With `CCC1=C(C)C2=Cc3cscc3B(O)N2C1=O`, the emission maximum was found to be 412 nm (in CC#N); 396 nm (in CCCCCC); 418 nm (in CO); 425 nm (in CS(C)=O); 414 nm (in ClC(Cl)Cl).

In the case of `N#Cc1cc(C#N)c(-c2cc(-n3c4ccccc4c4ccccc43)cc(-n3c4ccccc4c4ccccc43)c2)cc1-c1cc(-n2c3ccccc3c3ccccc32)cc(-n2c3ccccc3c3ccccc32)c1`, the emission maximum (in Cc1ccccc1) worked out at 372 nm.

Under “in Cc1ccccc1”, `c1ccc(-c2nc(-c3ccccc3)nc(-c3ccc(N4c5ccccc5CCc5ccccc54)cc3)n2)cc1` gave an emission maximum of 422.22 nm.

As for `CC[N+](CC)=c1ccc2c(-c3ccccc3C(=O)O)c3c(=O)oc4c5c6c(cc4c3oc-2c1)CCCN6CCC5`, the emission maximum by setting is: (in CCO) 674 nm; (in ClC(Cl)Cl) 664 nm; (in O) 684 nm.

The molecule `CCCCCCCCCCCCN1C(=O)c2c(c3ccc4cc(-c5ccc(C(F)(F)F)cc5)c(OC)cc4c3c3c2ccc2cc(-c4ccc(C(F)(F)F)cc4)c(OC)cc23)C1=O` registered an emission maximum (in ClCCl) of 522 nm.

`CC(C)(C)c1ccc2c(c1)Cc1cc(C(C)(C)C)ccc1-2` yielded an emission maximum (in C1CCCCC1) of 348 nm.

Take `CCN(CC)c1ccc2c(C#N)c(/C=C(\C#N)c3nc4ccccc4s3)c(=O)oc2c1`: the emission maximum (in C1COCCO1) was 647 nm; the emission maximum (in CC#N) was 679 nm; the emission maximum (in CCO) amounted to 692 nm; the emission maximum (in CCOC(C)=O) was 664 nm; the emission maximum (in CO) is reported as 701 nm; the emission maximum (in Cc1ccccc1) was 637 nm. The molecule further came in with an emission maximum (in ClCCl) of 666 nm.

Regarding `CCCCc1ccc2c(c1)c1cc(CCCC)ccc1n2-c1ccc(S(=O)(=O)c2ccc(S(=O)(=O)c3ccc(-n4c5ccc(CCCC)cc5c5cc(CCCC)ccc54)cc3)cc2)cc1`, the emission maximum is, setting by setting: (in Cc1ccccc1) 450 nm; (in c1cc(-n2c3ccccc3c3ccccc32)nc(-n2c3ccccc3c3ccccc32)c1) 467.24 nm.

With `COc1cc(OC)cc(C2=C3C(C)=C(I)C(C)=[N+]3[B-](F)(F)n3c(/C=C/c4c[nH]c5ccccc45)c(I)c(C)c32)c1`, the emission maximum runs as follows: (in C1CCOC1) 668 nm; (in CS(C)=O) 676 nm; (in ClCCl) 661 nm.

As for `c1ccc2c(c1)Cc1ccccc1N2c1c2ccccc2c(N2c3ccccc3Cc3ccccc32)c2ccccc12`, the emission maximum (in Cc1ccccc1) came out at 553 nm.

For `O=c1c(Nc2ccccc2)c([O-])c1=[NH+]c1ccccc1`, the emission maximum is reported as 477 nm (in C1CCOC1); 496 nm (in CC#N); 490 nm (in CC(C)=O); 492 nm (in CCO); 484 nm (in CCOCC); 495 nm (in CN1CCCC1=O). The emission maximum is, setting by setting: (in CN(C)C=O) 502 nm; (in CO) 498 nm; (in CS(C)=O) 504 nm; (in O) 504 nm.

For `COc1ccc(OC)c(C2=C3C=CC(=[N+](C)C)C=C3[Si](C)(C)c3cc(N(C)C)ccc32)c1`, the emission maximum (in O) was determined as 665 nm.

With `COc1ccc(C2=[N+]3C(=Nc4c(-c5ccccc5)c5c(n4[B-]3(F)F)-c3ccc(OC)cc3CC5)C(c3ccccc3)=C2)cc1`, the emission maximum (in ClC(Cl)Cl) came out at 732 nm.

In the case of `O=P1(c2ccccc2)c2cc(N3c4ccccc4Sc4ccccc43)ccc2-c2ccc(N3c4ccccc4Sc4ccccc43)cc21`, the emission maximum runs as follows: (in Cc1ccccc1) 557 nm; (in c1ccc2c(c1)c1ccccc1n2-c1ccc(-c2ccc(-n3c4ccccc4c4ccccc43)cc2)cc1) 554 nm.

On to `COc1ccc(-n2c(-c3ccc(-c4cncc5ccccc45)cc3)nc3c4ccccc4c4ccccc4c32)cc1`, for which the emission maximum (in C1CCOC1) was determined as 429 nm.

For the setting “in ClCCl”, `COc1ccc2c(c1)CCC1=C(C#Cc3cc4ccccc4c4ccccc34)O[B-](F)(F)[O+]=C12` yielded an emission maximum of 500 nm.

With `Cc1nc(-c2cc(C(F)(F)F)ccc2O)n2c1CCCC2`, the emission maximum (in ClCCl) is listed as 432 nm.

Molecule `COC(=O)C1=C(C(=O)OC)C2(c3ccccc3-c3c(C(=O)OC)cccc32)[C@@H](c2ccc(Cl)cc2)C=C2c3cc(OC)c(OC)cc3CCN21` (some centres not stated) gave an emission maximum (in ClCCl) of 439 nm.

As to `C[Si](C)(c1ccc2cc3ccccc3cc2c1)[Si](C)(C)c1ccc2cc3ccccc3cc2c1`, the emission maximum reads like this: (in C1CCCCC1) 415 nm; (in CC#N) 413 nm.

`N#Cc1ccc2nc3c(=O)[nH]c(=O)[nH]c3nc2c1` gave an emission maximum (in ClCCCl) of 430 nm.

Where the note is “in O”, `Clc1ccc2cc3cccc[n+]3cc2c1` had an emission maximum of 408 nm.

As for `CCN(CC)c1ccc(-c2nc(Oc3ccc(-c4nc5ccccc5[nH]4)cc3)nc(Oc3ccc(-c4nc5ccccc5[nH]4)cc3)n2)cc1`, for the setting “in CN(C)C=O”, the emission maximum worked out at 431 nm.

In turn, `COc1ccc(-c2csc(/C(C#N)=N\Nc3ccc(C#N)cc3)n2)cc1` returned an emission maximum (in CC#N) of 505 nm, an emission maximum (in CCO) of 508 nm, an emission maximum (in Cc1ccccc1) of 494 nm and an emission maximum (in ClCCl) of 527 nm.

With `C(=C\c1cnc2ccccc2n1)/c1ccc(N2CCCCC2)cc1`, the emission maximum (in C1CCOC1) stood at 557 nm; the emission maximum (in CC#N) is listed as 617 nm; the emission maximum (in CCCCCCC) was 480 nm; the emission maximum (in CS(C)=O) worked out at 626 nm; the emission maximum (in ClCCl) is recorded as 583 nm.
